# Test system: MV-4-11 cells
# Experiment: Gene expression microarray analysis (Affymetrix PrimeView) and GSEA
# Format: cell-based, human
# Parameters: RFU PODN (11730768_x_at) / Fold change /veh PODN (11730768_x_at) / RFU LINC00158 (11744669_a_at) / Fold change /veh LINC00158 (11744669_a_at) / RFU DUSP10 (11751237_a_at) / Fold change /veh DUSP10 (11751237_a_at) / RFU ID3 (11757404_x_at) / Fold change /veh ID3 (11757404_x_at) / RFU PLEKHG5 (11737974_s_at) / Fold change /veh PLEKHG5 (11737974_s_at) / RFU LRRC4B (11730491_at) / Fold change /veh LRRC4B (11730491_at) / RFU GIMAP4 (11747438_a_at) / Fold change /veh GIMAP4 (11747438_a_at) / RFU KRT8 (11758183_x_at) / Fold change /veh KRT8 (11758183_x_at) / RFU CNN1 (11734310_a_at) / Fold change /veh CNN1 (11734310_a_at) / RFU VPS37D (11726825_at) / Fold change /veh VPS37D (11726825_at) / RFU C10orf10 (11716522_x_at) / Fold change /veh C10orf10 (11716522_x_at) / RFU KIR2DL2 /// KIR2DL4 /// KIR2DL5A /// KIR2DL5B /// KIR2DS1 /// KIR2DS2 /// KIR2DS3 /// KIR2DS4 /// KIR3DL3 /// KIR3DL3 /// KIR3DS1 (11738374_at) / Fold change /veh KIR2DL2 /// KIR2DL4 /// KIR2DL5A /// KIR2DL5B /// KIR2DS1 /// KIR2DS2 /// KIR2DS3 /// KIR2DS4 /// KIR3DL3 /// KIR3DL3 /// KIR3DS1 (11738374_at) / RFU C1QL1 (11718748_at) / Fold change /veh C1QL1 (11718748_at) / RFU TMPRSS4 (11747572_a_at) / Fold change /veh TMPRSS4 (11747572_a_at) / RFU HAMP (11756126_x_at) / Fold change /veh HAMP (11756126_x_at) / RFU RNFT2 (11725882_a_at) / Fold change /veh RNFT2 (11725882_a_at) / RFU NR4A2 (11747474_a_at) / Fold change /veh NR4A2 (11747474_a_at) / RFU ABCC12 (11746883_a_at) / Fold change /veh ABCC12 (11746883_a_at) / RFU TMEM136 (11760407_x_at) / Fold change /veh TMEM136 (11760407_x_at) / RFU CLDN22 /// WWC2 (11732394_at) / Fold change /veh CLDN22 /// WWC2 (11732394_at) / RFU HLA-DPB1 (11760878_x_at) / Fold change /veh HLA-DPB1 (11760878_x_at) / RFU SPINT1 (11716480_a_at) / Fold change /veh SPINT1 (11716480_a_at) / RFU GAP43 (11754022_s_at) / Fold change /veh GAP43 (11754022_s_at) / RFU A4GNT (11735810_at) / Fold change /veh A4GNT (11735810_at) / RFU PRB3 (11715151_x_at) / Fold change /veh PRB3 (11715151_x_at) / RFU TUBB4B (11761932_at) / Fold change /veh TUBB4B (11761932_at) / RFU CAPN14 (11732068_a_at) / Fold change /veh CAPN14 (11732068_a_at) / RFU TMCC2 (11721928_a_at) / Fold change /veh TMCC2 (11721928_a_at) / RFU IRGQ (11745062_a_at) / Fold change /veh IRGQ (11745062_a_at) / RFU FAM174B (11720279_a_at) / Fold change /veh FAM174B (11720279_a_at) / RFU TMPRSS4 (11748680_a_at) / Fold change /veh TMPRSS4 (11748680_a_at) / RFU FAM212B (11763350_a_at) / Fold change /veh FAM212B (11763350_a_at) / RFU PLEKHG5 (11743358_a_at) / Fold change /veh PLEKHG5 (11743358_a_at) / RFU ZSCAN30 (11745921_a_at) / Fold change /veh ZSCAN30 (11745921_a_at) / RFU CMKLR1 (11741424_a_at) / Fold change /veh CMKLR1 (11741424_a_at) / RFU LOC101060620 /// MAPK8IP1 (11723275_at) / Fold change /veh LOC101060620 /// MAPK8IP1 (11723275_at) / RFU SPTSSB (11747773_x_at) / Fold change /veh SPTSSB (11747773_x_at) / RFU PRSS12 (11739890_at) / Fold change /veh PRSS12 (11739890_at) / RFU BIN1 (11741810_x_at) / Fold change /veh BIN1 (11741810_x_at) / RFU WNT11 (11732464_a_at) / Fold change /veh WNT11 (11732464_a_at) / RFU C10orf10 (11716521_a_at) / Fold change /veh C10orf10 (11716521_a_at) / RFU C5orf56 (11738089_at) / Fold change /veh C5orf56 (11738089_at) / RFU CYB561 (11721691_x_at) / Fold change /veh CYB561 (11721691_x_at) / RFU ANKRD19P (11752326_a_at) / Fold change /veh ANKRD19P (11752326_a_at) / RFU OR2T12 /// OR2T33 /// OR2T8 (11738714_s_at) / Fold change /veh OR2T12 /// OR2T33 /// OR2T8 (11738714_s_at) / RFU VCAN (11748164_a_at) / Fold change /veh VCAN (11748164_a_at) / RFU JSRP1 (11732532_at) / Fold change /veh JSRP1 (11732532_at) / RFU KRTAP10-11 (11738290_x_at) / Fold change /veh KRTAP10-11 (11738290_x_at) / RFU MYO3A (11730013_a_at) / Fold change /veh MYO3A (11730013_a_at) / RFU EBF3 (11725865_a_at) / Fold change /veh EBF3 (11725865_a_at) / RFU CAMK2N1 (11719241_x_at) / Fold change /veh CAMK2N1 (11719241_x_at) / RFU C5orf56 (11738088_a_at) / Fold change /veh C5orf56 (11738088_a_at) / RFU OLFML3 (11715873_a_at) / Fold change /veh OLFML3 (11715873_a_at) / RFU LOC100653217 /// NTM (11731650_a_at) / Fold change /veh LOC100653217 /// NTM (11731650_a_at) / RFU MAPK11 (11762145_a_at) / Fold change /veh MAPK11 (11762145_a_at) / RFU FIZ1 (11724087_x_at) / Fold change /veh FIZ1 (11724087_x_at) / RFU OASL (11726364_x_at) / Fold change /veh OASL (11726364_x_at) / RFU SOX15 (11748057_x_at) / Fold change /veh SOX15 (11748057_x_at) / RFU CD79A (11719716_a_at) / Fold change /veh CD79A (11719716_a_at) / RFU HIST1H1D (11736915_at) / Fold change /veh HIST1H1D (11736915_at) / RFU CASKIN2 (11723855_a_at) / Fold change /veh CASKIN2 (11723855_a_at) / RFU LOC730098 (11760151_x_at) / Fold change /veh LOC730098 (11760151_x_at) / RFU OR4N2 (11742367_at) / Fold change /veh OR4N2 (11742367_at) / RFU PRRT2 (11749266_a_at) / Fold change /veh PRRT2 (11749266_a_at) / RFU SNX32 (11753110_a_at) / Fold change /veh SNX32 (11753110_a_at) / RFU CDHR5 (11726645_a_at) / Fold change /veh CDHR5 (11726645_a_at) / RFU RCAN1 (11760418_a_at) / Fold change /veh RCAN1 (11760418_a_at) / RFU FAM167A (11723789_a_at) / Fold change /veh FAM167A (11723789_a_at) / RFU FAM26E (11764081_at) / Fold change /veh FAM26E (11764081_at) / RFU ISYNA1 (11749810_s_at) / Fold change /veh ISYNA1 (11749810_s_at) / RFU ACY1 (11761880_at) / Fold change /veh ACY1 (11761880_at) / RFU 11764098_at / Fold change /veh 11764098_at / RFU SAMD14 (11745864_x_at) / Fold change /veh SAMD14 (11745864_x_at) / RFU NPB (11741838_a_at) / Fold change /veh NPB (11741838_a_at) / RFU TMPRSS6 (11731388_a_at) / Fold change /veh TMPRSS6 (11731388_a_at) / RFU KRTAP10-2 (11738614_at) / Fold change /veh KRTAP10-2 (11738614_at) / RFU ARHGAP8 /// PRR5-ARHGAP8 (11727945_x_at) / Fold change /veh ARHGAP8 /// PRR5-ARHGAP8 (11727945_x_at) / RFU KRTAP5-7 /// NADSYN1 (11734609_at) / Fold change /veh KRTAP5-7 /// NADSYN1 (11734609_at) / RFU RASL12 (11751679_a_at) / Fold change /veh RASL12 (11751679_a_at) / RFU CDKN2B (11736163_a_at) / Fold change /veh CDKN2B (11736163_a_at) / RFU PRF1 (11729649_at) / Fold change /veh PRF1 (11729649_at) / RFU, ZNF638 /// ZNF638-IT1 / Fold change vs veh, ZNF638 /// ZNF638-IT1 / RFU, PANK3 / Fold change vs veh, PANK3 / RFU, SH3YL1 / Fold change vs veh, SH3YL1 / RFU, ZEB2 / Fold change vs veh, ZEB2 / RFU, NRIP1 / Fold change vs veh, NRIP1 / RFU, PTTG1IP / Fold change vs veh, PTTG1IP / RFU, CAPN2 / Fold change vs veh, CAPN2 / RFU, MED14 / Fold change vs veh, MED14 / RFU, SNORA58 / Fold change vs veh, SNORA58 / RFU, C1orf63 / Fold change vs veh, C1orf63 / RFU, LRRFIP1 / Fold change vs veh, LRRFIP1 / RFU, NDUFAF7 / Fold change vs veh, NDUFAF7 / RFU, SLC12A2 / Fold change vs veh, SLC12A2 / RFU, IBTK / Fold change vs veh, IBTK / RFU, ESF1 / Fold change vs veh, ESF1 / Fold change vs veh, TMEM50B / RFU, TAOK1 / Fold change vs veh, TAOK1 / RFU, ACBD3 / Fold change vs veh, ACBD3 / RFU, TMA16 / Fold change vs veh, TMA16 / RFU, RWDD3 / Fold change vs veh, RWDD3 / RFU, BCAT1 / Fold change vs veh, BCAT1 / RFU, EDEM3 / Fold change vs veh, EDEM3 / RFU, TMEM33 / Fold change vs veh, TMEM33 / RFU, WDR75 / Fold change vs veh, WDR75 / RFU, AHCTF1 / Fold change vs veh, AHCTF1 / RFU, TFRC / Fold change vs veh, TFRC / RFU, ZDHHC17 / Fold change vs veh, ZDHHC17 / RFU, NOM1 / Fold change vs veh, NOM1 / RFU, ARL8B / Fold change vs veh, ARL8B / RFU, ZBTB11 / Fold change vs veh, ZBTB11 / RFU, TAMM41 / Fold change vs veh, TAMM41 / RFU, KIAA1704 /// LOC100996395 / Fold change vs veh, KIAA1704 /// LOC100996395 / RFU, ING1 / Fold change vs veh, ING1 / RFU, TRMT61B / Fold change vs veh, TRMT61B / RFU, FUBP3 / Fold change vs veh, FUBP3 / RFU, TP53 / Fold change vs veh, TP53 / RFU, TNKS2 / Fold change vs veh, TNKS2 / RFU, ZFP14 / Fold change vs veh, ZFP14 / RFU, ACTR2 / Fold change vs veh, ACTR2 / RFU, PPP3R1 / Fold change vs veh, PPP3R1 / RFU, PIK3R1 / Fold change vs veh, PIK3R1 / RFU, HNRNPA1 / Fold change vs veh, HNRNPA1 / RFU, RNF170 / Fold change vs veh, RNF170 / RFU, ZNF28 / Fold change vs veh, ZNF28 / RFU, RNGTT / Fold change vs veh, RNGTT / RFU, OGT / Fold change vs veh, OGT / RFU, BRD1 / Fold change vs veh, BRD1 / RFU, MARS / Fold change vs veh, MARS / RFU, ZNF655 / Fold change vs veh, ZNF655 / RFU, FAHD1 / Fold change vs veh, FAHD1 / RFU, BDP1 / Fold change vs veh, BDP1 / RFU, LRRCC1 / Fold change vs veh, LRRCC1 / RFU, ARID1A / Fold change vs veh, ARID1A / RFU, ZNF146 / Fold change vs veh, ZNF146 / RFU, ZNF330 / Fold change vs veh, ZNF330 / RFU, GPN3 / Fold change vs veh, GPN3 / RFU, C9orf123 / Fold change vs veh, C9orf123 / RFU, N4BP2L2 / Fold change vs veh, N4BP2L2 / RFU, ARFIP1 / Fold change vs veh, ARFIP1 / RFU, FAM179B / Fold change vs veh, FAM179B / RFU, BCL10 / Fold change vs veh, BCL10 / RFU, UHRF1BP1L / Fold change vs veh, UHRF1BP1L / RFU, BET1 / Fold change vs veh, BET1 / RFU, CNOT2 / Fold change vs veh, CNOT2 / RFU, ZNF268 / Fold change vs veh, ZNF268 / Fold change vs veh, ZNF507 / RFU, DGCR2 / Fold change vs veh, DGCR2 / RFU, WDSUB1 / Fold change vs veh, WDSUB1 / Fold change vs veh, HSP90B1 /// MIR3652 / RFU, ADSS / Fold change vs veh, ADSS / RFU, GK / Fold change vs veh, GK / RFU, ZNF148 / Fold change vs veh, ZNF148 / RFU, TAF9 / Fold change vs veh, TAF9 / RFU, SLC1A5 / Fold change vs veh, SLC1A5 / RFU, SLMO2 / Fold change vs veh, SLMO2 / RFU, ABCC4 / Fold change vs veh, ABCC4 / RFU, LOC101060439 /// RAP1B / Fold change vs veh, LOC101060439 /// RAP1B / RFU, RFX7 / Fold change vs veh, RFX7 / RFU, GTPBP10 / Fold change vs veh, GTPBP10 / RFU, CNEP1R1 / Fold change vs veh, CNEP1R1 / RFU, BIVM-ERCC5 /// ERCC5 / Fold change vs veh, BIVM-ERCC5 /// ERCC5 / RFU, ILF3 / Fold change vs veh, ILF3 / RFU 11762660_at / Fold change /veh 11762660_at / RFU VCAN (11757783_s_at) / Fold change /veh VCAN (11757783_s_at) / RFU DDX43 (11728927_at) / Fold change /veh DDX43 (11728927_at) / RFU KRT8 (11758188_x_at) / Fold change /veh KRT8 (11758188_x_at) / RFU NKD1 (11759106_at) / Fold change /veh NKD1 (11759106_at) / RFU SRD5A1 (11742802_a_at) / Fold change /veh SRD5A1 (11742802_a_at) / RFU TPSAB1 /// TPSB2 (11721975_s_at) / Fold change /veh TPSAB1 /// TPSB2 (11721975_s_at) / RFU GSTM3 (11746129_a_at) / Fold change /veh GSTM3 (11746129_a_at) / RFU IL23R (11737362_x_at) / Fold change /veh IL23R (11737362_x_at) / RFU TMEM51 (11727254_a_at) / Fold change /veh TMEM51 (11727254_a_at) / RFU PIWIL2 (11732686_x_at) / Fold change /veh PIWIL2 (11732686_x_at) / RFU ORM1 (11744905_x_at) / Fold change /veh ORM1 (11744905_x_at) / RFU CCDC152 (11743942_at) / Fold change /veh CCDC152 (11743942_at) / RFU ECM1 (11717891_a_at) / Fold change /veh ECM1 (11717891_a_at) / RFU IL23R (11748794_a_at) / Fold change /veh IL23R (11748794_a_at) / RFU TNFAIP8L3 (11732012_x_at) / Fold change /veh TNFAIP8L3 (11732012_x_at) / RFU MBOAT4 (11741988_at) / Fold change /veh MBOAT4 (11741988_at) / RFU 11764193_at / Fold change /veh 11764193_at / RFU TMEM53 (11763286_at) / Fold change /veh TMEM53 (11763286_at) / RFU MAGEB2 (11727129_at) / Fold change /veh MAGEB2 (11727129_at) / RFU TMEM200A (11744735_a_at) / Fold change /veh TMEM200A (11744735_a_at) / RFU CCDC152 (11751479_a_at) / Fold change /veh CCDC152 (11751479_a_at) / RFU FAM211A (11726209_a_at) / Fold change /veh FAM211A (11726209_a_at) / RFU RGS16 (11746705_a_at) / Fold change /veh RGS16 (11746705_a_at) / RFU VCAN (11755009_s_at) / Fold change /veh VCAN (11755009_s_at) / RFU RHOB (11743442_s_at) / Fold change /veh RHOB (11743442_s_at) / RFU RGS16 (11720943_a_at) / Fold change /veh RGS16 (11720943_a_at) / RFU RGS16 (11720944_at) / Fold change /veh RGS16 (11720944_at) / RFU, VPS4B / Fold change vs veh, VPS4B / RFU, CREB1 / Fold change vs veh, CREB1 / RFU, DNAJC13 / Fold change vs veh, DNAJC13 / RFU, GNAQ / Fold change vs veh, GNAQ / RFU, CDK5R1 / Fold change vs veh, CDK5R1 / RFU, ZRANB3 / Fold change vs veh, ZRANB3 / RFU, CUL4A / Fold change vs veh, CUL4A / RFU, CCNY / Fold change vs veh, CCNY / RFU, UFL1 / Fold change vs veh, UFL1 / RFU, COG3 / Fold change vs veh, COG3 / RFU, DIAPH2 / Fold change vs veh, DIAPH2 / RFU, SKA2 / Fold change vs veh, SKA2 / RFU, AFF3 / Fold change vs veh, AFF3 / RFU, LMF1 / Fold change vs veh, LMF1 / RFU, IPO11 / Fold change vs veh, IPO11 / RFU, DFFB / Fold change vs veh, DFFB / RFU, FOXP1 / Fold change vs veh, FOXP1 / RFU, CARD8 / Fold change vs veh, CARD8 / RFU, STRN3 / Fold change vs veh, STRN3 / RFU, ADK / Fold change vs veh, ADK / RFU, RASSF2 / Fold change vs veh, RASSF2 / RFU, WIPF1 / Fold change vs veh, WIPF1 / RFU, LARP1B / Fold change vs veh, LARP1B / RFU, RASA1 / Fold change vs veh, RASA1 / RFU, RB1 / Fold change vs veh, RB1 / RFU, PPFIA1 / Fold change vs veh, PPFIA1 / RFU, MAT2A / Fold change vs veh, MAT2A / RFU, CCT5 / Fold change vs veh, CCT5 / RFU, WDR92 / Fold change vs veh, WDR92 / RFU, CUX1 / Fold change vs veh, CUX1 / RFU, TTC7A / Fold change vs veh, TTC7A / RFU, TMEM135 / Fold change vs veh, TMEM135 / RFU, DEPTOR / Fold change vs veh, DEPTOR / RFU, CPM / Fold change vs veh, CPM / RFU, DNAJB6 / Fold change vs veh, DNAJB6 / RFU, CACNA2D3 / Fold change vs veh, CACNA2D3 / RFU, DTX4 / Fold change vs veh, DTX4 / RFU, TFCP2 / Fold change vs veh, TFCP2 / RFU, GMCL1 /// GMCL1P1 / Fold change vs veh, GMCL1 /// GMCL1P1 / RFU, AEBP2 / Fold change vs veh, AEBP2 / RFU, SNHG1 /// SNORD22 /// SNORD25 /// SNORD26 /// SNORD27 /// SNORD28 /// SNORD29 /// SNORD31 / Fold change vs veh, SNHG1 /// SNORD22 /// SNORD25 /// SNORD26 /// SNORD27 /// SNORD28 /// SNORD29 /// SNORD31 / Fold change (Aza/veh), C12orf56 (ProbeSet 11735607_a_at) / Fold change (ACY-1035/veh), C12orf56 (ProbeSet 11735607_a_at) / Fold change (Aza/veh), FGFR1OP (ProbeSet 11751329_s_at) / Fold change (ACY-1035/veh), FGFR1OP (ProbeSet 11751329_s_at) / Fold change (Aza/veh), VPS36 (ProbeSet 11739960_a_at) / Fold change (ACY-1035/veh), VPS36 (ProbeSet 11739960_a_at) / RFU SYPL1 (11715823_x_at) / Fold change /veh SYPL1 (11715823_x_at) / RFU IGFBP7 (11715501_s_at) / Fold change /veh IGFBP7 (11715501_s_at) / RFU REEP3 (11722064_at) / Fold change /veh REEP3 (11722064_at) / RFU IGLL1 (11728026_x_at) / Fold change /veh IGLL1 (11728026_x_at): dose or concentration left out as unconfirmed
# Conditions: ProbeSet 11748670_a_at; LIST B
compound,measurement,value
Nc1ccc(-c2cccs2)cc1NC(=O)c1ccc2c(c1)cc(C1CC1)n2CCN1CCOCC1 [ACY-1035],"Fold change vs veh, PIK3R1",0.90
